# Patent publication US8461209B2, “Malonic acid sulfonamide derivative and pharmaceutical use thereof” (Mitsubishi Tanabe Pharma Corporation, priority 2007, dated 2013)
# Molecular target: T1, human recombinant AT2 receptor (Homo sapiens, UniProt P50052)
# T1 construct: purchased PerkinElmer 6110538; host or cells: HeLa cells
# T1 sequence (P50052 1-363): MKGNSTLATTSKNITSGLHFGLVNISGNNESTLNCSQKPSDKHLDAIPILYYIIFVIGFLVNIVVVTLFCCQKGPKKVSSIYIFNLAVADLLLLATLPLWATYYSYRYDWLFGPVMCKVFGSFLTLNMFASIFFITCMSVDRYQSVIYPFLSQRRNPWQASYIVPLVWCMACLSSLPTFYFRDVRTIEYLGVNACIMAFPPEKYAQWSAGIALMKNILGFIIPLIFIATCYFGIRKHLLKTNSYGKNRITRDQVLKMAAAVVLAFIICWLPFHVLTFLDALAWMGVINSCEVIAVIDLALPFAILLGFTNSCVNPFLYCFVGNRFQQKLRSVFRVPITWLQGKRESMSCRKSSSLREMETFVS
# Assay: Affinity for AT2 receptor (receptor binding assay)
# Settings: membrane fraction from HeLa cells expressing human recombinant AT2 receptor; 125I-[Sar1, Ile8]-Ang II 0.1 nmol/L
# Experimental: Using a commercially available receptor membrane fraction (PerkinElmer, Cat No. 6110538) obtained from HeLa cells expressing human recombinant AT2 receptor, a receptor binding assay was performed. ^125I-[Sar^1, Ile^8]-Ang II (0.8 kBq, final concentration 0.1 nmol/L) and various concentrations of the compound of the present invention were added to a solution of 50 mmol/L Tris-HCl (pH 7.4), 125 mmol/L NaCl, 6.5 mmol/L MgCl2 and 1 mmol/L EDTA containing the receptor membrane fraction, and the mixture was incubated at room temperature for 90 min. Bound or free ^125I-[Sar^1, Ile^8]-Ang II was separated with a glass fiber filter (Millipore, MultiScreen FB Plate), and the radioactivity of ^125I-[Sar^1, Ile^8]-Ang II bound to the receptor was determined. […] On the other hand, Kd value of ^125I-[Sar^i, Ile^8]-Ang II for AT2 receptor in the absence of the compound of the present invention was determined by Scatchard analysis. Using the IC50 value obtained from the concentration-response curve and the Kd value of ^125I-[Sar^1, Ile^8]-Ang II, the Ki value of the compound of the present invention was calculated and used as an index of the affinity for AT2 receptor.
row,SMILES,Ki [nM]
1,"CC(C)N(C(=O)C(CC1CC1)C(=O)NS(=O)(=O)/C=C/c1ccccc1)c1ccc(F)cc1 (single isomer, unassigned) [Example 516, (2S or 2R)-2-cyclopropylmethyl-N-(4-fluorophenyl)-N-isopropyl-N′-((E)-2-styrylsulfonyl)malonamide]",6.1
2,"CCN(CC)C(=O)C(Cc1ccc(NC(=O)Oc2ccccc2)cc1)C(=O)NS(=O)(=O)c1ccc2ccccc2c1 (stereo not shown) [Example 87, N,N-diethyl-N′-(2-naphthylsulfonyl)-2-[4-(phenoxycarbonylamino)benzyl]malonamide]",23
3,"CCN(CC)C(=O)[C@H](Cc1ccc(NC(=O)c2cc(F)ccc2N)cc1)C(=O)NS(=O)(=O)c1ccc2ccccc2c1 [Example 99, (2S)-2-{4-[(2-amino-5-fluorobenzoyl)amino]benzyl}-N,N-diethyl-N′-(2-naphthylsulfonyl)malonamide]",0.9
4,"CCN(CC)C(=O)[C@H](Cc1ccc(NC(=O)c2ccccn2)cc1)C(=O)NS(=O)(=O)c1ccc2ccccc2c1 [Example 101, (2S)—N,N-diethyl-N′-(2-naphthylsulfonyl)-2-{4-[(2-pyridylcarbonyl)amino]benzyl}malonamide]",16
5,"CCN(CC)C(=O)[C@H](Cc1ccc(NC(=O)c2ccc(Cl)cc2N)cc1)C(=O)NS(=O)(=O)c1ccc2ccccc2c1 [Example 103, (2S)-2-{4-[(2-amino-4-chlorobenzoyl)amino]benzyl}-N,N-diethyl-N′-(2-naphthylsulfonyl)malonamide]",3.2
6,"CCN(CC)C(=O)[C@H](Cc1ccc(NC(=O)c2ccccc2N)cc1)C(=O)NS(=O)(=O)c1ccc2ccccc2c1 [Example 104, (2S)-2-{4-[(2-aminobenzoyl)amino]benzyl}-N,N-diethyl-N′-(2-naphthylsulfonyl)malonamide]",3.3
7,"CCN(CC)C(=O)[C@H](Cc1ccc(NC(=O)c2cc(Cl)ccc2N)cc1)C(=O)NS(=O)(=O)c1ccc2ccccc2c1 [Example 105, (2S)-2-{4-[(2-amino-5-chlorobenzoyl)amino]benzyl}-N,N-diethyl-N′-(2-naphthylsulfonyl)malonamide]",5.4
8,"CCN(CC)C(=O)[C@H](Cc1ccc(NC(=O)c2cc(C)ccc2N)cc1)C(=O)NS(=O)(=O)c1ccc2ccccc2c1 [Example 108, (2S)-2-{4-[(2-amino-5-methylbenzoyl)amino]benzyl}-N,N-diethyl-N′-(2-naphthylsulfonyl)malonamide]",9.7
9,"CCN(CC)C(=O)C(CCCc1ccc(N)cc1)C(=O)NS(=O)(=O)c1ccc2ccccc2c1 (stereo not shown) [Example 147, 2-[3-(4-aminophenyl)propyl]-N,N-diethyl-N′-(2-naphthylsulfonyl)malonamide]",34
10,"CCN(C(=O)C(CC(=O)N1CCc2ccccc2C1)C(=O)NS(=O)(=O)/C=C/c1ccccc1)c1ccccc1 (stereo not shown) [Example 441, 2-[2-(3,4-dihydroisoquinolin-2(1H)-yl)-2-oxoethyl]-N-ethyl-N-phenyl-N′-((E)-styrylsulfonyl)malonamide]",11
11,"C=CCC(C(=O)NS(=O)(=O)/C=C/c1ccccc1)C(=O)N(c1ccc(F)cc1)C(C)C (stereo not shown) [Example 481, 2-allyl-N-(4-fluorophenyl)-N-isopropyl-N′-((E)-styrylsulfonyl)malonamide]",9
12,"CC(C)CC(C(=O)NS(=O)(=O)c1ccc2ccccc2c1)C(=O)N(c1ccc(F)cc1)C(C)C (stereo not shown) [Example 495, N-(4-fluorophenyl)-2-isobutyl-N-isopropyl-N′-(2-naphthylsulfonyl)malonamide]",8.4

# Continued by falling Ki, values first:
row,Ki [nM],SMILES
1,13,"C=CCC(C(=O)NS(=O)(=O)/C=C/c1ccccc1)C(=O)N(CC)c1cccc(C(F)(F)F)c1 (stereo not shown) [Example 475, 2-allyl-N-ethyl-N′-((E)-styrylsulfonyl)-N-(3-trifluoromethylphenyl)malonamide]"
2,13,"CC(C)N(C(=O)C(CC1CC1)C(=O)NS(=O)(=O)c1ccc2ccccc2c1)c1ccc(F)cc1 (stereo not shown) [Example 530, 2-cyclopropylmethyl-N-(4-fluorophenyl)-N-isopropyl-N′-(2-naphthylsulfonyl)malonamide]"
3,12,"CCN(C(=O)C(Cc1cnn(Cc2ccccc2)c1)C(=O)NS(=O)(=O)/C=C/c1ccccc1)c1ccccc1 (stereo not shown) [Example 371, 2-[(1-benzyl-1H-pyrazol-4-yl)methyl]-N-ethyl-N-phenyl-N′-((E)-styrylsulfonyl)malonamide]"
4,12,"CC(C)CC(C(=O)NS(=O)(=O)CCCOc1ccccc1)C(=O)N(c1ccc(F)cc1)C(C)C (stereo not shown) [Example 496, N-(4-fluorophenyl)-2-isobutyl-N-isopropyl-N′-(3-phenoxypropylsulfonyl)malonamide]"
5,10,"CC(C)N(C(=O)C(CC1CC1)C(=O)NS(=O)(=O)CCc1ccccc1)c1ccc(F)cc1 (stereo not shown) [Example 529, 2-cyclopropylmethyl-N-(4-fluorophenyl)-N-isopropyl-N′-phenethylsulfonylmalonamide]"
6,9.2,"CC(C)CC(C(=O)NS(=O)(=O)/C=C/c1ccccc1)C(=O)N(c1ccc(F)cc1)C(C)C (stereo not shown) [Example 491, N-(4-fluorophenyl)-2-isobutyl-N-isopropyl-N′-((E)-styrylsulfonyl)malonamide]"
7,8,"CCN(CC)C(=O)C(Cc1ccc(NC(=O)c2c(F)cccc2F)cc1)C(=O)NS(=O)(=O)c1ccc2ccccc2c1 (stereo not shown) [Example 22, N,N-diethyl-2-{4-[(2,6-difluorobenzoyl)amino]benzyl}-N′-(2-naphthylsulfonyl)malonamide]"
8,6.4,"CC(C)N(C(=O)C(Cc1ccc(F)cc1)C(=O)NS(=O)(=O)/C=C/c1ccccc1)c1cccnc1 (stereo not shown) [Example 322, 2-(4-fluorobenzyl)-N-isopropyl-N-(3-pyridyl)-N′-((E)-styrylsulfonyl)malonamide]"
9,5.2,"CC(C)CC(C(=O)NS(=O)(=O)CCc1ccccc1)C(=O)N(c1ccc(F)cc1)C(C)C (stereo not shown) [Example 493, N-(4-fluorophenyl)-2-isobutyl-N-isopropyl-N′-phenethylsulfonylmalonamide]"
10,2.3,"CCN(CC)C(=O)[C@H](Cc1ccc(NC(=O)c2ccccc2)cc1)C(=O)NS(=O)(=O)c1ccc2ccccc2c1 [Example 92, (2S)-2-[4-(benzoylamino)benzyl]-N,N-diethyl-N′-(2-naphthylsulfonyl)malonamide]"
11,1.8,"CCN(CC)C(=O)[C@H](Cc1ccc(NC(=O)c2c(N)cccc2F)cc1)C(=O)NS(=O)(=O)c1ccc2ccccc2c1 [Example 100, (2S)-2-{4-[(2-amino-6-fluorobenzoyl)amino]benzyl}-N,N-diethyl-N′-(2-naphthylsulfonyl)malonamide]"
12,1.6,"CCN(CC)C(=O)[C@H](Cc1ccc(NC(=O)c2cc(F)c(F)cc2N)cc1)C(=O)NS(=O)(=O)c1ccc2ccccc2c1 [Example 106, (2S)-2-{4-[(2-amino-4,5-difluorobenzoyl)amino]benzyl}-N,N-diethyl-N′-(2-naphthylsulfonyl)malonamide]"
13,1.6,"CCN(CC)C(=O)[C@H](Cc1ccc(NC(=O)c2ccc(F)cc2N)cc1)C(=O)NS(=O)(=O)c1ccc2ccccc2c1 [Example 107, (2S)-2-{4-[(2-amino-4-fluorobenzoyl)amino]benzyl}-N,N-diethyl-N′-(2-naphthylsulfonyl)malonamide]"
